Data: ChEMBL document CHEMBL3259557, “Structure-activity relationships and colorimetric properties of specific probes for the putative cancer biomarker human arylamine N-acetyltransferase 1” (Bioorg Med Chem, 2014)

biological target: T1, NAT1 (arylamine N-acetyltransferase 1) (Homo sapiens, UniProt P18440); assay: in vitro; conditions: ZR-75-1 cells, probe arylamine and AcCoA
T1 sequence (P18440 whole entry): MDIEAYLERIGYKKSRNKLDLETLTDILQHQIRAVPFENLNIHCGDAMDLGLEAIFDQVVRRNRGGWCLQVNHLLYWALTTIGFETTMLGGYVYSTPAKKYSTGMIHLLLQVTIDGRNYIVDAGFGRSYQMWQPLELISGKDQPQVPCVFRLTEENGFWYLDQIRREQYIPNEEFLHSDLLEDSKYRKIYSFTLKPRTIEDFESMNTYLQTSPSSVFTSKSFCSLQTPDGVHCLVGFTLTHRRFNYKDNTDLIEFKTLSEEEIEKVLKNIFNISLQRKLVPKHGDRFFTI

| inhibition at 1 µM [%] | SMILES |
| --- | --- |
| > 50 | Cc1cc(C)cc(NC2=C(NS(=O)(=O)c3ccccc3)C(=O)c3ccccc3C2=O)c1 |
| > 50 | Cc1cc(C)cc(NC2=C(NS(=O)(=O)c3ccc(F)cc3)C(=O)c3ccccc3C2=O)c1 |
| > 50 | Cc1cc(C)cc(NC2=C(NS(=O)(=O)c3ccccc3)C(=O)c3cc(N)ccc3C2=O)c1 |
| > 50 | Cc1cc(C)cc(NC2=C(NS(=O)(=O)c3ccccc3)C(=O)c3c(N)cccc3C2=O)c1 |

biological target: T2, NAT2 (arylamine N-acetyltransferase 2) (Homo sapiens, UniProt P11245); assay: in vitro; conditions: probe arylamine and AcCoA
T2 sequence (P11245 whole entry): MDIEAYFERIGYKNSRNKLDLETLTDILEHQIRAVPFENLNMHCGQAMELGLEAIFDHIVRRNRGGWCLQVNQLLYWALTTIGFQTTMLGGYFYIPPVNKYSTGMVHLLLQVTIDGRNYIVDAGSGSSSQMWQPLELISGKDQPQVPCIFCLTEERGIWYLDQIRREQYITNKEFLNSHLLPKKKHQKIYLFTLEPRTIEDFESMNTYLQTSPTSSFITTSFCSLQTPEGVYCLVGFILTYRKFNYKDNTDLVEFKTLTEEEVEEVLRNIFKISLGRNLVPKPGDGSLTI

| inhibition at 30 µM [%] | SMILES |
| --- | --- |
| > 50 | O=Cc1cccc(C2=C(NC(=O)c3ccccc3)C(=O)c3ccccc3C2=O)c1 |
| > 50 | O=C(NC1=C(c2ccoc2)C(=O)c2ccccc2C1=O)c1ccccc1 |

tested on: not listed separately; assay: physchem; conditions: buffered solution containing 5% DMSO

| pKa at 100 µM | SMILES |
| --- | --- |
| 9.5 | O=C1C(Nc2ccccc2)=C(NS(=O)(=O)c2ccccc2)C(=O)c2ccccc21 |
| 9.2 | Cc1cc(C)cc(NC2=C(NS(=O)(=O)c3ccccc3)C(=O)c3ccccc3C2=O)c1 |
| 10.4 | O=C1C(Nc2ccc(Br)cc2)=C(NS(=O)(=O)c2ccccc2)C(=O)c2ccccc21 |
| 9.8 | COCCNC1=C(NS(=O)(=O)c2ccccc2)C(=O)c2ccccc2C1=O |
| 10.1 | O=C1C(NC2CCCC2)=C(NS(=O)(=O)c2ccccc2)C(=O)c2ccccc21 |
| 10.4 | O=C1C(NCc2ccccc2)=C(NS(=O)(=O)c2ccccc2)C(=O)c2ccccc21 |
| 5 | O=C1C(NS(=O)(=O)c2ccccc2)=C(Oc2ccccc2)C(=O)c2ccccc21 |
| 5 | Cc1cc(C)cc(OC2=C(NS(=O)(=O)c3ccccc3)C(=O)c3ccccc3C2=O)c1 |
| 5 | O=C1C(NS(=O)(=O)c2ccccc2)=C(Oc2ccc(Br)cc2)C(=O)c2ccccc21 |
| 4.9 | O=C1C(NS(=O)(=O)c2ccccc2)=C(c2ccccc2Cl)C(=O)c2ccccc21 |
| 4.5 | O=C1C(NS(=O)(=O)c2ccccc2)=C(c2cccc(Cl)c2)C(=O)c2ccccc21 |
| 5 | O=C1C(NS(=O)(=O)c2ccccc2)=C(c2ccc(Cl)cc2)C(=O)c2ccccc21 |
| 5 | O=Cc1cccc(C2=C(NS(=O)(=O)c3ccccc3)C(=O)c3ccccc3C2=O)c1 |
| 4.6 | O=Cc1ccc(C2=C(NS(=O)(=O)c3ccccc3)C(=O)c3ccccc3C2=O)cc1 |
| 5.1 | O=C1C(NS(=O)(=O)c2ccccc2)=C(c2ccco2)C(=O)c2ccccc21 |
| 5 | O=C1C(NS(=O)(=O)c2ccccc2)=C(c2ccoc2)C(=O)c2ccccc21 |
| 10.9 | O=Cc1cccc(C2=C(NC(=O)c3ccccc3)C(=O)c3ccccc3C2=O)c1 |
| 12.1 | O=C(NC1=C(c2ccoc2)C(=O)c2ccccc2C1=O)c1ccccc1 |
| 11.4 | O=Cc1cccc(C2=C(NC(=O)Cc3ccccc3)C(=O)c3ccccc3C2=O)c1 |
| 12.5 | O=C(Cc1ccccc1)NC1=C(c2ccoc2)C(=O)c2ccccc2C1=O |
| 8.4 | O=C1C(Nc2ccccc2)=C(NS(=O)(=O)c2ccccc2)C(=O)c2c1cccc2[N+](=O)[O-] |
| 8.2 | Nc1cccc2c1C(=O)C(NS(=O)(=O)c1ccccc1)=C(Nc1ccccc1)C2=O |

Further lines, the molecule ahead of its results:

| SMILES | pKa at 100 µM |
| --- | --- |
| Cc1cc(C)cc(NC2=C(NS(C)(=O)=O)C(=O)c3ccccc3C2=O)c1 | 9.5 |
| Cc1cc(C)cc(NC2=C(NS(=O)(=O)C3CCCCC3)C(=O)c3ccccc3C2=O)c1 | 10.6 |
| Cc1cc(C)cc(NC2=C(NS(=O)(=O)c3ccccc3C)C(=O)c3ccccc3C2=O)c1 | 9.3 |
| Cc1cc(C)cc(NC2=C(NS(=O)(=O)c3ccccc3[N+](=O)[O-])C(=O)c3ccccc3C2=O)c1 | 7.9 |
| Cc1cc(C)cc(NC2=C(NS(=O)(=O)c3c(F)cccc3F)C(=O)c3ccccc3C2=O)c1 | 8.4 |
| Cc1cc(C)cc(NC2=C(NS(=O)(=O)c3cccc([N+](=O)[O-])c3)C(=O)c3ccccc3C2=O)c1 | 8.6 |
| Cc1ccc(S(=O)(=O)NC2=C(Nc3cc(C)cc(C)c3)C(=O)c3ccccc3C2=O)cc1 | 9.7 |
| Cc1cc(C)cc(NC2=C(NS(=O)(=O)c3ccc(F)cc3)C(=O)c3ccccc3C2=O)c1 | 9.9 |
| Cc1cc(C)cc(NC2=C(NS(=O)(=O)c3ccco3)C(=O)c3ccccc3C2=O)c1 | 8.3 |
| Cc1cc(C)cc(NC2=C(NS(=O)(=O)Cc3ccccc3)C(=O)c3ccccc3C2=O)c1 | 10 |
| Cc1cc(C)cc(NC2=C(NS(=O)(=O)c3ccccc3)C(=O)c3cccc([N+](=O)[O-])c3C2=O)c1 | 8.2 |
| Cc1cc(C)cc(NC2=C(NS(=O)(=O)c3ccccc3)C(=O)c3ccc([N+](=O)[O-])cc3C2=O)c1 | 7.5 |
| Cc1cc(C)cc(NC2=C(NS(=O)(=O)c3ccccc3)C(=O)c3cc([N+](=O)[O-])ccc3C2=O)c1 | 8 |
| Cc1cc(C)cc(NC2=C(NS(=O)(=O)c3ccccc3)C(=O)c3c(cccc3[N+](=O)[O-])C2=O)c1 | 8.6 |
| Cc1cc(C)cc(NC2=C(NS(=O)(=O)c3ccccc3)C(=O)c3c(N)cccc3C2=O)c1 | 8.4 |
